Experimental findings from ChEMBL document CHEMBL4138081, “Recent developments of coumarin-containing derivatives and their anti-tubercular activity” (Eur J Med Chem, 2017) are described below.

In brackets after ≈: the same amount, converted by molar mass.

Series [1] has as its system Mycobacterium tuberculosis. Kind of series: Antimycobacterial activity against Mycobacterium tuberculosis H37Rv by broth dilution assay. In kind it is functional.
In series [2] the test system is Mycobacterium tuberculosis. As to the kind of experiment: Antimycobacterial activity against Mycobacterium tuberculosis after 5 days by MABA. In kind it is functional. The following applies: 120 h.
The test system of series [3] is Mycobacterium tuberculosis. Kind of series: Antimycobacterial activity against Mycobacterium tuberculosis H37Rv by MABA. In kind it is functional.
Series [4] relates to Mycobacterium tuberculosis. As to the kind of experiment: Growth inhibition of Mycobacterium tuberculosis H37Rv at 6.25 ug/ml by MABA method relative to control. In kind it is functional. The following applies: read-out: GI.
Series [5] concerns Mycobacterium tuberculosis. Kind of series: Antimycobacterial activity against Mycobacterium tuberculosis H37Rv […] by BACTEC MGIT method. In kind it is functional.
Series [6] has as its system Mycobacterium tuberculosis. Kind of series: Antimycobacterial activity against Mycobacterium tuberculosis H37Rv after 12 to 28 days by Lowenstein and Jensen method. In kind it is functional.
In series [7] the test system is Mycobacterium tuberculosis. As to the kind of experiment: Antimycobacterial activity against Mycobacterium tuberculosis ATCC 27294 by MABA. In kind it is functional.
The subject of another series is Mycolicibacterium vaccae. As to the kind of experiment: Antimycobacterial activity against Mycolicibacterium vaccae 10670. In kind it is functional.
Series [8] deals with Mycolicibacterium smegmatis. As to the kind of experiment: Antimycobacterial activity against Mycobacterium smegmatis CMCC 93202. In kind it is functional.
The subject of series [9] is Mycolicibacterium smegmatis. Kind of series: Potency index, ratio of ciprofloxacin MIC to compound MIC for Mycobacterium smegmatis CMCC 93202. In kind it is functional.
The test system of series [10] is Mycolicibacterium smegmatis. Kind of series: Potency index, ratio of MIC for rifampin to MIC for test compound for Mycobacterium smegmatis CMCC 93202. In kind it is functional.
The test system of series [11] is Mycolicibacterium smegmatis. As to the kind of experiment: Potency index, ratio of MIC for moxifloxacin to MIC for test compound for Mycobacterium smegmatis CMCC 93202. In kind it is functional.
The subject of series [12] is Mycolicibacterium smegmatis. Kind of series: Potency index, ratio of MIC for 8-OCH3 ciprofloxacin to MIC for test compound for Mycobacterium smegmatis CMCC 93202. In kind it is functional.
Series [13] relates to Mycobacterium tuberculosis. Kind of series: Antimycobacterial activity against Mycobacterium tuberculosis H37Rv after 72 hrs by alamar blue dye-based broth dilution assay. In kind it is functional.
The subject of series [14] is Mycobacterium tuberculosis. As to the kind of experiment: Antimycobacterial activity against Mycobacterium tuberculosis H37Rv by BACTEC radiometric assay. In kind it is functional.
The nature of series [15]: Selectivity index, ratio of LD50 for African green monkey Vero cells to MIC>99 for Mycobacterium tuberculosis H37Rv. In kind it is toxicity. The following applies: read-out: Selectivity Index.
A short description of series [16]: Cytotoxicity against African green monkey Vero cells by CellTiter 96 non-radioactive cell proliferation assay. Conditions: chlorocebus sabaeus, read-out: LD50 (the source's name). In kind it is cell-based.
The test system of series [17] is Mycobacterium tuberculosis. As to the kind of experiment: Antimycobacterial activity against Mycobacterium tuberculosis H37Rv ATCC 27294 by BACTEC method. In kind it is functional.

In turn, `O=c1oc2ccccc2cc1-c1cn2nc(C(F)(F)F)sc2n1` gave an MIC in series [1] of 40 µg/mL (≈ 119 µM).
Take `Cc1cc(=O)oc2cc(OCc3cn(Cc4cc(=O)oc5cc(Cl)ccc45)nn3)ccc12`: in series [2], the MIC worked out at 6.25 µg/mL (≈ 13.9 µM).
Regarding `COc1ccc(-c2cc(-c3ccc([N+](=O)[O-])cc3)nc(/N=c3\ccc4ccccc4o3)n2)cc1`, in [3], the MIC was in the range of 9.6 to 240 µg/mL (≈ 21.3 to 533 µM). For the same compound, the inhibition of growth at 6.25 µg/mL in [4] was determined as 65%.
In the case of `N#Cc1ccc(Nc2nc(Oc3cc(=O)oc4ccccc34)nc(N3CCN(c4ccc(F)cc4)CC3)n2)cc1C(F)(F)F`, the MIC was more than 6.25 µg/mL in series [5] and 100 to 1000 µg/mL (≈ 166 to 1660 µM) in series [6].
In the case of `O=C(N/N=C/c1ccc(O)cc1O)c1cc2ccccc2oc1=O`, the MIC in series [7] is 50 to 100 µg/mL (≈ 154 to 308 µM).
The compound `O=C(N/N=C/c1cccc(O)c1)c1cc2ccccc2oc1=O` registered a minimum inhibitory concentration (MIC) in series [7] of 50 to 100 µg/mL (≈ 162 to 324 µM).
Consider `Cn1c(=O)cc(Oc2nc(Nc3ccc(C#N)c(C(F)(F)F)c3)nc(N3CCN(c4ccc(F)cc4)CC3)n2)c2ccccc21`, for which the values for the minimum inhibitory concentration (MIC) in [5] and in [6] were more than 6.25 µg/mL and 100 to 1000 µg/mL (≈ 162 to 1620 µM), respectively.
`O=C(N/N=C/c1ccc([N+](=O)[O-])cc1)c1cc2ccccc2oc1=O` registered an MIC in series [7] of 50 to 100 µg/mL (≈ 148 to 296 µM).
On the same count and under the same terms, the figure for `COc1ccc(/C=N/NC(=O)c2cc3ccccc3oc2=O)cc1` is 50 to 100 µg/mL (≈ 155 to 310 µM).
Take `N#Cc1ccc(Nc2nc(Oc3cc(=O)oc4ccccc34)nc(N3CCN(c4ccc(C(F)(F)F)cc4)CC3)n2)cc1C(F)(F)F`: the MIC in [5] was more than 6.25 µg/mL; in series [6], 100 to 1000 µg/mL (≈ 153 to 1530 µM).
`Cc1cc(=O)oc2cc(OCc3cn(Cc4cc(=O)oc5ccc(Cl)cc45)nn3)ccc12`: it took 6.25 µg/mL (≈ 13.9 µM) to inhibit growth in series [2] (MIC).
As for `Cc1ccc2oc(=O)c3c(O)c4cccc(O[C@@H]5O[C@H](C)[C@@H](O)[C@H](O)[C@H]5O[C@@H]5O[C@@H](C)[C@@H](O)[C@@H](O)[C@@H]5O)c4c4oc(=O)c1c2c34`, the MIC in the series on Mycolicibacterium vaccae was 1.22 µM (≈ 0.764 µg/mL).
As to `Oc1ccc(-c2cc(-c3ccc(Cl)cc3)nc(/N=c3\ccc4ccccc4o3)n2)cc1`, the minimum inhibitory concentration (MIC) in [3] fell in the range of 9.6 to 240 µg/mL (≈ 22.5 to 564 µM). For the same compound, in series [4], the inhibition of growth at 6.25 µg/mL is 70%.
In series [7], `COc1cccc(/C=N/NC(=O)c2cc3ccccc3oc2=O)c1` yielded an MIC of 50 to 100 µg/mL (≈ 155 to 310 µM).
With `COc1ccc2cc(C(=O)CN3CCN(c4c(F)cc5c(=O)c(C(=O)O)cn(C6CC6)c5c4OC)CC3)c(=O)oc2c1`, the MIC in series [8] was 0.25 µg/mL (≈ 0.433 µM). For the same compound, the Ratio in [9], in series [10], in [11] and in series [12] was 2 - 8 throughout.
Take `Cc1cc2oc(=O)c(C(c3cccs3)c3c(O)c4cc(C)c(C)cc4oc3=O)c(C)c2cc1C` (stereo unspecified): the lowest concentration to inhibit growth in series [13] (MIC) was 5.22 µM (≈ 2.47 µg/mL).
Turning to `N#Cc1ccc(Nc2nc(Oc3cc(=O)oc4ccccc34)nc(N3CCN(c4ccccc4F)CC3)n2)cc1C(F)(F)F`, the MIC in series [5] is more than 6.25 µg/mL; in [6] it was 100 to 1000 µg/mL (≈ 166 to 1660 µM).
The matching figures for `Cn1c(=O)cc(Oc2nc(Nc3ccc(C#N)c(C(F)(F)F)c3)nc(N3CCN(c4cccc(C(F)(F)F)c4)CC3)n2)c2ccccc21`: more than 6.25 µg/mL and 100 to 1000 µg/mL (≈ 150 to 1500 µM).
Consider `C[C@H]1[C@H](C)Oc2c3c(c4c(-c5ccccc5)cc(=O)oc4c2[C@H]1O)OC(C)(C)C=C3` [SOULATTROLIDE], for which the MIC99 in series [14] was 3.13 µg/mL (≈ 7.74 µM). Also, in [15], the selectivity ratio was more than 3.2. Also, in series [16], the CC50 was more than 10 µg/mL.
For `COc1ccc(-c2cc(-c3ccc(O)cc3)nc(/N=c3\ccc4ccccc4o3)n2)cc1`, the MIC in series [3] was in the range of 9.6 to 240 µg/mL (≈ 22.8 to 569 µM). In addition, the inhibition of growth at 6.25 µg/mL in series [4] turned out to be 37%.
On to `N#Cc1ccc(Nc2nc(Oc3cc(=O)oc4ccccc34)nc(N3CCN(c4cccc(C(F)(F)F)c4)CC3)n2)cc1C(F)(F)F`, for which the results for the MIC in [5] and in series [6] were more than 6.25 µg/mL and 100 to 1000 µg/mL (≈ 153 to 1530 µM), respectively.
Consider `Cn1c(=O)cc(Oc2nc(Nc3ccc(C#N)c(C(F)(F)F)c3)nc(N3CCN(c4ccc(C(F)(F)F)cc4)CC3)n2)c2ccccc21`, for which the minimum inhibitory concentration (MIC) was more than 6.25 µg/mL in series [5] and 100 to 1000 µg/mL (≈ 150 to 1500 µM) in [6].
For `Cn1c(=O)cc(Oc2nc(Nc3ccc(C#N)c(C(F)(F)F)c3)nc(N3CCN(c4ccccc4F)CC3)n2)c2ccccc21`, in that order: more than 6.25 µg/mL and 100 to 1000 µg/mL (≈ 162 to 1620 µM).
The compound `O=c1oc2ccccc2cc1C(c1cccs1)c1c(O)c2ccccc2oc1=O` (stereo unspecified) returned an MIC in series [13] of 5.22 µM (≈ 2.1 µg/mL).
The compound `O=C(N/N=C/c1ccc(O)cc1)c1cc2ccccc2oc1=O` yielded an MIC in series [7] of 50 to 100 µg/mL (≈ 162 to 324 µM).
The same measure, in the same setting: as for `NC(=O)c1cnccn1` [PYRAZINAMIDE], the figure is more than 100 µg/mL.
In [2], `Cc1cc(=O)oc2cc(OCc3cn(Cc4cc(=O)oc5ccc6ccccc6c45)nn3)ccc12` returned an MIC of 6.25 µg/mL (≈ 13.4 µM).
On to `O=C(N/N=C/c1cccc(Cl)c1)c1cc2ccccc2oc1=O`, for which, in series [7], the MIC lay in the range of 50 to 100 µg/mL (≈ 153 to 306 µM).
Turning to `CCCc1cc(=O)oc2c3c(c4c(c12)OC(C)(C)C=C4)O[C@H](C)[C@@H](C)[C@@H]3O` [CALANOLIDE A], in series [17], it took 3.13 µg/mL (≈ 8.45 µM) to inhibit growth (MIC).
